# From ChEMBL document CHEMBL5532672, “Discovery of 2-Ethoxy-5-isobutyramido-N-1-substituted Benzamide Derivatives as Selective Kv2.1 Inhibitors with In Vivo Neuroprotective Effects” (J Med Chem, 2024)
# Active and inactive are the calls of the source. The calls are words filed in the database; no cut-off is given here.
# What was measured:
# [1] = biological target: T1, Potassium voltage-gated channel subfamily B member 1 (Homo sapiens, UniProt Q14721); test: Inhibition of human KV2.1 stably expressed in HEK293 cells by whole cell patch-clamp assay; format: cell-based
# T1 sequence (Q14721 whole entry): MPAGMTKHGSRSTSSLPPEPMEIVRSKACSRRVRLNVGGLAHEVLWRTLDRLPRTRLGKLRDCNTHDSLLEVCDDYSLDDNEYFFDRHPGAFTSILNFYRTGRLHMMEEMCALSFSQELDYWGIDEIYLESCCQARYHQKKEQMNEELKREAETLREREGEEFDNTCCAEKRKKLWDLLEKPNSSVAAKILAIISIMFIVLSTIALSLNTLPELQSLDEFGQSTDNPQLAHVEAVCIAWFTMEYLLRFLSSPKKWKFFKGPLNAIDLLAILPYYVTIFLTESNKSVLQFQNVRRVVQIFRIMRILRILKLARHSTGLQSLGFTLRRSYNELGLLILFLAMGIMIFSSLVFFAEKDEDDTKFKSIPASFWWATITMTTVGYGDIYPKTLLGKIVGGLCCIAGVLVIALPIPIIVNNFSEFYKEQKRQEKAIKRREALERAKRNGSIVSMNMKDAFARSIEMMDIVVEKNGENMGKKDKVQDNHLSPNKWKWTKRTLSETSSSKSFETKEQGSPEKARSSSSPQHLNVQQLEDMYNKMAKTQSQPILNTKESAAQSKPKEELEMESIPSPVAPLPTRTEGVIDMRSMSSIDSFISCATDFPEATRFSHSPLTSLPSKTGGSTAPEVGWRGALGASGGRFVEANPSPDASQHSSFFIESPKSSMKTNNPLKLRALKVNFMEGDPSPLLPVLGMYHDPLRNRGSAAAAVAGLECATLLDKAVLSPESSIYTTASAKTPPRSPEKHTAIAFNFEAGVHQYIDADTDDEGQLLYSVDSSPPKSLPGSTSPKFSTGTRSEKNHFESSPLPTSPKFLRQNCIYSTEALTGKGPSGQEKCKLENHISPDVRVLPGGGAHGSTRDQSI
# [2] = biological target: Voltage-gated inwardly rectifying potassium channel KCNH2 (Homo sapiens, UniProt Q12809); test: Inhibition of human ERG by whole cell patch-clamp assay; format: toxicity
# Chain of Voltage-gated inwardly rectifying potassium channel KCNH2 (Q12809 whole entry): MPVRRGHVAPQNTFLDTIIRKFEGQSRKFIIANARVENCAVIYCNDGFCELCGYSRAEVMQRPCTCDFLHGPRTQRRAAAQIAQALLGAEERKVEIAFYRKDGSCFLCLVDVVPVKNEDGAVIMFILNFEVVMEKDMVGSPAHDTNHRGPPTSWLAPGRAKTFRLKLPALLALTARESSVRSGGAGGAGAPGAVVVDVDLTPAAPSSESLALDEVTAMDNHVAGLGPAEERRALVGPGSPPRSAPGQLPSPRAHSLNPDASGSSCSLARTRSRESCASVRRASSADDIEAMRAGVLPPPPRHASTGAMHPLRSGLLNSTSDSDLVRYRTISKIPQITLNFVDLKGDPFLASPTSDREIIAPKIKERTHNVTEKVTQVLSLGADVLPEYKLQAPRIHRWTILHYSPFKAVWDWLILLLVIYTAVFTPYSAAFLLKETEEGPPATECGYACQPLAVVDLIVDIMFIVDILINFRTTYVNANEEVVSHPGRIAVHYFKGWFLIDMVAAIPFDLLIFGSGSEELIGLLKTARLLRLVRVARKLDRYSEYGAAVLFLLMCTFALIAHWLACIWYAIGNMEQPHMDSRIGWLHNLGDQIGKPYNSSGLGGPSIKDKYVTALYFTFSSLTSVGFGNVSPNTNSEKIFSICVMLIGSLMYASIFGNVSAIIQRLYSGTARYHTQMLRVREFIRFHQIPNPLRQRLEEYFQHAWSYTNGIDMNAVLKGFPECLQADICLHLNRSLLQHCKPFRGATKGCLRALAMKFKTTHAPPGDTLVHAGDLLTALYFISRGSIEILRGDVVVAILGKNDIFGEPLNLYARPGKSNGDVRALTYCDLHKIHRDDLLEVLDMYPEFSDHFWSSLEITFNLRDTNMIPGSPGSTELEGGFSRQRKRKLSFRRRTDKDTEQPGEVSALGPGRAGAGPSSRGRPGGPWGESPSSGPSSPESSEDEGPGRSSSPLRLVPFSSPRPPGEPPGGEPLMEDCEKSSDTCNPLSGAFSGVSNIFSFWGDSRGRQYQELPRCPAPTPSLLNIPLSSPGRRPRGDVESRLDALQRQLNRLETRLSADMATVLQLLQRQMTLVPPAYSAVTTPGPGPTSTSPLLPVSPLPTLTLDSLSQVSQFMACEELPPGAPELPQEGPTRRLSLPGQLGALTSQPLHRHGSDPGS
# [3] = biological target: Potassium voltage-gated channel subfamily A member 5 (Homo sapiens, UniProt P22460); test: Inhibition of KV1.5 (unknown origin) by whole cell patch-clamp assay
# Chain of Potassium voltage-gated channel subfamily A member 5 (P22460 whole entry): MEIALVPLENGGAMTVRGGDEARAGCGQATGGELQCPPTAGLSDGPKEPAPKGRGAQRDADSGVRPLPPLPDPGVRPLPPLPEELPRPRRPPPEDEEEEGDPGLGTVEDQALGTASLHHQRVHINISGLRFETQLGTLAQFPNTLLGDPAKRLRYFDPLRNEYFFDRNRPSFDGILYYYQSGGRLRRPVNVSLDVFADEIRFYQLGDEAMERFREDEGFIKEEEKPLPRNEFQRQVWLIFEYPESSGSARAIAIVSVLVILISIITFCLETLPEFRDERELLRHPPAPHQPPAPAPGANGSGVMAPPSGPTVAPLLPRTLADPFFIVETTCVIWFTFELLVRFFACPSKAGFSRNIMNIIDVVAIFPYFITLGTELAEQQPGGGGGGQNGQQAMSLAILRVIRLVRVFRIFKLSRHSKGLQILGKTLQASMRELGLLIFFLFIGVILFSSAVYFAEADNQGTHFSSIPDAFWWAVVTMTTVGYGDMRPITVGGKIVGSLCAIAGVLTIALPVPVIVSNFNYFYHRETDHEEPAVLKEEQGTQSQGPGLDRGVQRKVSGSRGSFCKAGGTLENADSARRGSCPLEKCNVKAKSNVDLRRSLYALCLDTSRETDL
# [4] = biological target: T2, Voltage-gated potassium channel KCNC1 (Homo sapiens, UniProt P48547); test: Inhibition of KV3.1 (unknown origin) by whole cell patch-clamp assay
# T2 sequence (P48547 whole entry): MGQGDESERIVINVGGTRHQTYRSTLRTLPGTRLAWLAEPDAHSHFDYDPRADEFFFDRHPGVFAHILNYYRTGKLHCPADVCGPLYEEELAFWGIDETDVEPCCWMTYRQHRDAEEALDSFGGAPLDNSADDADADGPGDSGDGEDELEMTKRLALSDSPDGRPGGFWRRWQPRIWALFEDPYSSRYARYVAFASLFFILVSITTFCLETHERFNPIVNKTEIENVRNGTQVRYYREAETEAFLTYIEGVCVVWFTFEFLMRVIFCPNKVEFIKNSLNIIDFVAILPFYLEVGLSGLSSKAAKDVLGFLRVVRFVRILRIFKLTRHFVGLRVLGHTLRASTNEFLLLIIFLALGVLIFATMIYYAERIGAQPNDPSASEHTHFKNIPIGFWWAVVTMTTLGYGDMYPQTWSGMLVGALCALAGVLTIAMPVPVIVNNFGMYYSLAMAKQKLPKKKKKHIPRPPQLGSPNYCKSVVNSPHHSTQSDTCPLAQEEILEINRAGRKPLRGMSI
# [5] = biological target: T3, Potassium voltage-gated channel subfamily B member 1 (Homo sapiens) (UniProt Q14721); test: Inhibition of human KV2.1 stably expressed in HEK293 cells at 1 uM by whole cell patch-clamp assay; format: cell-based
# T3 sequence (whole entry): T1 sequence (Q14721 whole entry)
IC50 [1] [nM],Structure (SMILES),further results
~1000,CCOc1ccc(NC(=O)C(C)C)cc1C(=O)NC(C)c1ccnc(C)n1 (stereo not drawn),
50,CCOc1ccc(NC(=O)C(C)C)cc1C(=O)NC(C)c1cccc(OC)n1 (stereo not drawn),IC50 [2]: > 30000 nM; IC50 [3]: 10000 nM
~1000,CCOc1ccc(NC(=O)C(C)C)cc1C(=O)NC(C)c1cccc(Cl)n1 (stereo not drawn),
320,CCOc1ccc(NC(=O)C(C)C)cc1C(=O)NC(C)c1cccc(N2CCC2)c1 (stereo not drawn),
370,CCOc1ccc(NC(=O)C(C)C)cc1C(=O)NC(C)c1cccc(OC)c1 (stereo not drawn),
> 1000,CC(C)COc1ccc(NC(=O)C(C)C)cc1C(=O)NC(C)c1cccc(-c2nccs2)c1 (stereo not drawn),
430,CCOc1ccc(NC(=O)C(C)C)cc1C(=O)NC(C)c1cccc(-c2nccs2)c1 (stereo not drawn),IC50 [2]: > 30000 nM; IC50 [3]: 10000 nM; IC50 [4]: > 30000 nM
80,CCOc1ccc(NC(=O)C(C)C)cc1C(=O)NC(C)c1cccc(C)c1 (stereo not drawn),IC50 [2]: 30000 nM; IC50 [3]: 5700 nM; IC50 [4]: > 30000 nM
~1000,CCOc1ccc(NC(=O)C(C)C)cc1C(=O)NC(C)c1cccc(N2CCCC2)c1 (stereo not drawn),
430,CCOc1ccc(NC(=O)C(C)C)cc1C(=O)NC(C)c1ccnc(OC)c1 (stereo not drawn),
~1000,CCOc1ccc(NC(=O)C(C)C)cc1C(=O)NC(C)c1ccccc1 (stereo not drawn),
~1000,CCOc1ccc(NC(=O)C(C)C)cc1C(=O)NC(C)c1cccc(Br)c1 (stereo not drawn),
~1000,CCOc1ccc(NC(=O)C(C)C)cc1C(=O)NC(C)c1ccnc(OC)n1 (stereo not drawn),
590,CCCOc1ccc(NC(=O)C(C)C)cc1C(=O)NC(C)c1cccc(-c2nccs2)c1 (stereo not drawn),
1000,CCOc1ccc(NC(=O)OC(C)C)cc1C(=O)NC(C)c1cccc(-c2nccs2)c1 (stereo not drawn),
~1000,CCOc1ccc(NC(=O)C(C)C)cc1C(=O)NC(C)c1ccnc(Cl)n1 (stereo not drawn),
~10000,CCOc1ccc(NC(C)=O)cc1C(=O)NC(C)c1cccc(-c2nccs2)c1 (stereo not drawn),
320,CCOc1ccc(NC(=O)C(C)C)cc1C(=O)NC(C)c1cccc(F)n1 (stereo not drawn),
660,CCOc1ccc(NC(=O)C(C)C)cc1C(=O)NC(C)c1cccc(-c2ncccn2)c1 (stereo not drawn),
~1000,CCOc1ccc(NC(=O)C(C)C)cc1C(=O)NCc1cccc(Br)c1,
3000,COc1ccc(NC(=O)C(C)C)cc1C(=O)NC(C)c1cccc(-c2nccs2)c1 (stereo not drawn),
> 1000,CCOc1ccc(NC(=O)C(C)C)cc1C(=O)NC(C)c1cncc(C)n1 (stereo not drawn),
> 1000,CCOc1ccc(NC(=O)C(C)C)cc1C(=O)NC(C)c1ccnc(NC)n1 (stereo not drawn),
250,CCOc1ccc(NC(=O)C(C)C)cc1C(=O)NC(C)c1cccc(OC(F)F)c1 (stereo not drawn),IC50 [2]: 10000 nM; IC50 [3]: 10000 nM
~1000,CCOc1ccc(NC(=O)C(C)C)cc1C(=O)NC(C)c1cccc(Br)n1 (stereo not drawn),

# Second part, the molecule before the results:
Structure (SMILES),IC50 [1] [nM],further results
CCOc1ccc(NC(=O)C2CCC2)cc1C(=O)NC(C)c1cccc(-c2nccs2)c1 (stereo not drawn),550,
CC(C)C(=O)Nc1ccc(N(C)C)c(C(=O)NCc2ccccn2)c1,540,IC50 [2]: 30000 nM; IC50 [3]: > 30000 nM; IC50 [4]: > 30000 nM
CC(C)Oc1ccc(NC(=O)C(C)C)cc1C(=O)NC(C)c1cccc(-c2nccs2)c1 (stereo not drawn),> 1000,
CC(C)C(=O)Nc1ccc(OCC(F)(F)F)c(C(=O)NC(C)c2cccc(-c3nccs3)c2)c1 (stereo not drawn),> 1000,
CCOc1ccc(NC(=O)C2CC2)cc1C(=O)NC(C)c1cccc(-c2nccs2)c1 (stereo not drawn),1100,
CCOc1ccc(C(=O)NC(C)C)cc1C(=O)NCc1cccc(-c2nccs2)c1,,inhibition [5]: inactive
CC(C)C(=O)Nc1ccc(N(C)C)c(C(=O)NCc2cccc(-c3nccs3)c2)c1,390,IC50 [2]: 30000 nM; IC50 [3]: 11000 nM; IC50 [4]: > 30000 nM
CC(C)C(=O)Nc1ccc(N(C)C)c(C(=O)NCc2cccnc2)c1,> 1000,
CCOc1ccc(NC(=O)C(C)C)cc1C(=O)NCc1cccc(OC(F)F)c1,300,IC50 [2]: 30000 nM; IC50 [3]: 14200 nM; IC50 [4]: > 30000 nM
CCOc1ccc(N2CCCC2=O)cc1C(=O)NCc1cccc(-c2nccs2)c1,,inhibition [5]: inactive
CCOc1ccc(NC(=O)C(C)C)cc1C(=O)NCc1cccc(-c2nccs2)c1,530,
CC(C)C(=O)Nc1ccc(OCC(F)(F)F)c(C(=O)NCc2cccc(-c3nccs3)c2)c1,> 1000,
CCOc1ccc(NC(=O)c2ccccc2)cc1C(=O)NCc1cccc(-c2nccs2)c1,,inhibition [5]: inactive
CCOc1ccc(NC(=O)C(F)(F)F)cc1C(=O)NC(C)c1cccc(-c2nccs2)c1 (stereo not drawn),> 10000,
CC(C)C(=O)Nc1ccc(N(C)C)c(C(=O)NCc2cccc3ccccc23)c1,> 1000,
CC(C)C(=O)Nc1cccc(C(=O)NC(C)c2cccc(-c3nccs3)c2)c1 (stereo not drawn),> 1000,
CC(C)C(=O)Nc1ccc(N(C)C)c(C(=O)NCc2ccncc2)c1,,inhibition [5]: inactive
CC(C)C(=O)Nc1ccc(N(C)C)c(C(=O)NCc2cccc(-c3ccco3)c2)c1,> 1000,
CCOc1ccc(NC(=O)C2CCCC2)cc1C(=O)NC(C)c1cccc(-c2nccs2)c1 (stereo not drawn),> 10000,
CCOc1ccc(NC(=O)CC)cc1C(=O)NC(C)c1cccc(-c2nccs2)c1 (stereo not drawn),~10000,
CCOc1ccc(NC(=O)C(C)C)cc1C(=O)NCc1cccc(N2CCCC2)c1,~1000,
CC(C)C(=O)Nc1ccc(N(C)C)c(C(=O)NCc2cccc(-c3ccccc3)c2)c1,3550,
CCOc1ccc(NC(=O)C(C)C)cc1C(=O)NCc1cccc(OC(F)(F)F)c1,337,
CCOc1ccc(NC(=O)C(C)C)cc1C(=O)NCc1cccc(-c2ccccn2)c1,> 1000,
CCOC(=O)Nc1ccc(OCC)c(C(=O)NC(C)c2cccc(-c3nccs3)c2)c1 (stereo not drawn),1100,
CCOc1ccc(NC(=O)C(C)C)cc1C(=O)N(C)Cc1cccc(-c2nccs2)c1,,inhibition [5]: inactive
CC(C)C(=O)Nc1ccc(N(C)C)c(C(=O)NC(C)c2ccccc2)c1 (racemic),480,
CCOc1ccc(N(C)C(=O)C(C)C)cc1C(=O)NCc1cccc(-c2nccs2)c1,,inhibition [5]: inactive
CCOc1ccc(NS(=O)(=O)CC)cc1C(=O)NC(C)c1cccc(-c2nccs2)c1 (stereo not drawn),10000,
